Test results published in PubChem BioAssay AID2060900 (Molecular Pharmacology Branch, DTP, NCI, 2025).

System: 521955-158-R2-J5-PDC complex spheroids, viability
Assay: Anticancer human tumor 521955-158-R2-J5-PDC patient-derived pancreatic carcinoma cell line growth inhibition [RAS]
Conditions: for IC50: curve of first compound; for viability, T/C: stronger effect = lower value
Excerpt: RAS pathway inhibitors in Combinations in Complex Spheroids
A high-throughput screen of multi-cell type tumor spheroids was designed to identify active combinations of RAS pathway inhibitors and targeted small molecules. Complex spheroids include a stromal component modeled by human endothelial cells (HUVEC) and fibroblasts modeled by human mesenchymal stem cells (MSCs). The concentration ranges selected for each drug and investigational agent were based upon clinically achievable concentrations if the clinical Cmax of the agent was known.
Compounds. The drugs and investigational agents: abemaciclib (NSC768073), cobimetinib (NSC768068), divarasib (GDC6063, NSC841802), docetaxel (NSC628503), GDC-1971 (RLY-1971, NSC841576), gemcitabine (NSC613327), inavolisib (NSC800729), ipatasertib (NSC767898), KB-0742 (NSC834161), MRTX-1133 (NSC836407), osimertinib (NSC779217), RMC-4630 (NSC839698), RMC-6236 (NSC851965), RMC-6291 (NSC852671), Ro-3306 (NSC812927), sapanisertib (NSC764658), SN-38 (NSC673596), staurosporine (NSC755774), SY5609 (NSC837396), and tovorafenib (DAY101, NSC766906), were obtained from the National Cancer Institute (NCI) Developmental Therapeutics Program Chemical Repository. The FDA-approved anticancer drug set is available from the NCI Developmental Therapeutics Program. […] The stock solutions were prepared in dimethyl sulfoxide (DMSO, Sigma-Aldrich, St. Louis, MO, cat. D2650) at 800-fold the tested concentration and stored at -70 degrees C prior to their use. All drugs and investigational agents were tested over a range starting from a high concentration at or near the clinical Cmax and decreasing in half-log increments. If the clinical Cmax for an agent had not been determined, the highest concentration tested was 10 microM.
Cell Culture. All cells were maintained in an incubator at 37 degrees C and 5% CO2 with 95% humidity. The PDC lines were cultured according to standard operating procedures established by the NCI PDMR. All PDCs were thawed and cultured in Matrigel-coated flasks prepared with a working solution of 1X Ham's F-12 nutrient mix, without supplementation (Invitrogen, Waltham, MA, cat. 11765054), 100 U/mL penicillin-streptomycin (Invitrogen, cat. 15140122), and 2.5% Matrigel (Corning Inc., Corning, NY, cat. 354248) for the first three passages. The 362531-283-R-J2-PDC and 782815-120-R-J1-PDC lines were cultured in 6C/Colon 1B media, which includes advanced DMEM/F-12 (Thermo Fisher Scientific, cat. 12634028), 10 mM HEPES (Thermo Fisher Scientific, cat. 15630080), 1X GlutaMAX supplement (Thermo Fisher Scientific, cat. 35050061), 0.1 mg/mL primocin (InvivoGen, San Diego, CA, cat. ant-pm-2), 10% defined fetal bovine serum, heat inactivated (HyClone Laboratories Inc., Logan, UT, cat. SH30070.03HI), 50% L-WRN conditioned media (ATCC, cat. CRL-3276), 1.25 mM N-Acetyl-L-cysteine (Sigma-Aldrich, cat. A9165), 10 mM nicotinamide (Sigma-Aldrich, cat. N0636), 1X B-27 supplement (Thermo Fisher Scientific, cat. 17504044), 1X N-2 supplement (Thermo Fisher Scientific, cat. 17502048), 50 ng/mL human EGF (Thermo Fisher Scientific, cat. PHG0311), and 10 microM Y-27632 dihydrochloride (Tocris Bioscience, cat. 1254). The K12877-001-R-J1-PDC line was cultured in 6I media, which includes all 6C/Colon 1B media plus 10 ng/mL human FGF-10 (PeproTech, cat. 100-26), 1 ng/mL human FGF-2 (PeproTech, cat. 100-18B), 1 µM prostaglandin E2 (Tocris Bioscience, cat. 2296), […] hydrocortisone (Sigma-Aldrich, cat. H4001), and […] bovine insulin (Sigma-Aldrich, cat. I6634). The K86415-001-R-J1-PDC line was cultured in 6D media, which includes all 6C/Colon 1B media components minus the L-WRN conditioned media. The 485176-168-R4-J1-PDC was cultured in PANC media, which includes all 6C/Colon 1B media plus 100 ng/mL human FGF-10 (PeproTech, cat. 100-26), 500 nM SB-431542 (Selleckchem, cat. S1067), and 10 nM gastrin (Tocris Bioscience, cat. 3006). […]
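Note: compound exposure lasted seven days before the viability read.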
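Throughout, for viability, T/C: spheroids also contain HUVEC endothelial cells and mesenchymal stem cells as stroma.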

Cc1nc(N2CCC3(CC2)COC(C)C3N)c(CO)nc1Sc1ccnc(N)c1Cl (centres undefined) + CCn1c(-c2cc(N3CCN(C)CC3)cnc2C(C)OC)c2c3cc(ccc31)-c1csc(n1)CC(NC(=O)C1CC1C)C(=O)N1CCCC(N1)C(=O)OCC(C)(C)C2
IC50 (second compound 0.000949 µM): < 31.6 nM
IC50 (second compound 0.003 µM): < 31.6 nM
IC50 (second compound 0.00949 µM): < 31.6 nM
IC50 (second compound 0.03 µM): < 31.6 nM
IC50 (second compound 0.0949 µM): < 31.6 nM
IC50 (second compound 0.3 µM): < 31.6 nM
viability, T/C (second compound 0.000949 µM, first compound 0.0316 µM): 39.5%
viability, T/C (second compound 0.000949 µM, first compound 0.1 µM): 31%
viability, T/C (second compound 0.000949 µM, first compound 0.316 µM): 32.7%
viability, T/C (second compound 0.000949 µM, first compound 1 µM): 39.2%
viability, T/C (second compound 0.000949 µM, first compound 3.16 µM): 36.4%
viability, T/C (second compound 0.000949 µM, first compound 10 µM): 33.3%
viability, T/C (second compound 0.003 µM, first compound 0.0316 µM): 36.2%
viability, T/C (second compound 0.003 µM, first compound 0.1 µM): 40.7%
viability, T/C (second compound 0.003 µM, first compound 0.316 µM): 35.3%
viability, T/C (second compound 0.003 µM, first compound 1 µM): 31.3%
viability, T/C (second compound 0.003 µM, first compound 3.16 µM): 23.8%
viability, T/C (second compound 0.003 µM, first compound 10 µM): 20.9%
viability, T/C (second compound 0.00949 µM, first compound 0.0316 µM): 27.4%
viability, T/C (second compound 0.00949 µM, first compound 0.1 µM): 32.1%
viability, T/C (second compound 0.00949 µM, first compound 0.316 µM): 25%
viability, T/C (second compound 0.00949 µM, first compound 1 µM): 18.3%
viability, T/C (second compound 0.00949 µM, first compound 3.16 µM): 18.7%
viability, T/C (second compound 0.00949 µM, first compound 10 µM): 10.8%
viability, T/C (second compound 0.03 µM, first compound 0.0316 µM): 15.9%
viability, T/C (second compound 0.03 µM, first compound 0.1 µM): 18.1%
viability, T/C (second compound 0.03 µM, first compound 0.316 µM): 12.8%
viability, T/C (second compound 0.03 µM, first compound 1 µM): 13.9%
viability, T/C (second compound 0.03 µM, first compound 3.16 µM): 11.8%
viability, T/C (second compound 0.03 µM, first compound 10 µM): 11.7%
viability, T/C (second compound 0.0949 µM, first compound 0.0316 µM): 14.3%
viability, T/C (second compound 0.0949 µM, first compound 0.1 µM): 11%
viability, T/C (second compound 0.0949 µM, first compound 0.316 µM): 15.1%
viability, T/C (second compound 0.0949 µM, first compound 1 µM): 7.6%
viability, T/C (second compound 0.0949 µM, first compound 3.16 µM): 11.3%
viability, T/C (second compound 0.0949 µM, first compound 10 µM): 10.7%
viability, T/C (second compound 0.3 µM, first compound 0.0316 µM): 9.07%
viability, T/C (second compound 0.3 µM, first compound 0.1 µM): 8.16%
viability, T/C (second compound 0.3 µM, first compound 0.316 µM): 8.08%
viability, T/C (second compound 0.3 µM, first compound 1 µM): 6.34%
viability, T/C (second compound 0.3 µM, first compound 3.16 µM): 7.5%
viability, T/C (second compound 0.3 µM, first compound 10 µM): 9.18%

CCc1c2c(nc3ccc(O)cc13)-c1cc3c(c(=O)n1C2)COC(=O)[C@]3(O)CC + CCn1c(-c2cccnc2C(C)OC)c2c3cc(ccc31)N1CCOC(CC(NC(=O)C(C(C)C)N(C)C(=O)C3(F)CCN(C(=O)C#CC(C)(C)N(C)C)CC3)C(=O)N3CCCC(N3)C(=O)OCC(C)(C)C2)C1
IC50 (second compound 0.000949 µM): 2.25 nM
IC50 (second compound 0.003 µM): 2.41 nM
IC50 (second compound 0.00949 µM): 2.52 nM
IC50 (second compound 0.03 µM): 2.53 nM
IC50 (second compound 0.0949 µM): 2.64 nM
IC50 (second compound 0.3 µM): 1.7 nM
viability, T/C (second compound 0.000949 µM, first compound 0.000949 µM): 97.8%
viability, T/C (second compound 0.000949 µM, first compound 0.003 µM): 34.1%
viability, T/C (second compound 0.000949 µM, first compound 0.00949 µM): 12.3%
viability, T/C (second compound 0.000949 µM, first compound 0.03 µM): 5.82%
viability, T/C (second compound 0.000949 µM, first compound 0.0949 µM): 6.17%
viability, T/C (second compound 0.000949 µM, first compound 0.3 µM): 6.87%
viability, T/C (second compound 0.003 µM, first compound 0.000949 µM): 92.6%
viability, T/C (second compound 0.003 µM, first compound 0.003 µM): 39.6%
viability, T/C (second compound 0.003 µM, first compound 0.00949 µM): 16.9%
viability, T/C (second compound 0.003 µM, first compound 0.03 µM): 5.84%
viability, T/C (second compound 0.003 µM, first compound 0.0949 µM): 4.8%
viability, T/C (second compound 0.003 µM, first compound 0.3 µM): 7.45%
viability, T/C (second compound 0.00949 µM, first compound 0.000949 µM): 104%
viability, T/C (second compound 0.00949 µM, first compound 0.003 µM): 40.5%
viability, T/C (second compound 0.00949 µM, first compound 0.00949 µM): 14.4%
viability, T/C (second compound 0.00949 µM, first compound 0.03 µM): 8.96%
viability, T/C (second compound 0.00949 µM, first compound 0.0949 µM): 6.33%
viability, T/C (second compound 0.00949 µM, first compound 0.3 µM): 7.48%
viability, T/C (second compound 0.03 µM, first compound 0.000949 µM): 72.7%
viability, T/C (second compound 0.03 µM, first compound 0.003 µM): 46.1%
viability, T/C (second compound 0.03 µM, first compound 0.00949 µM): 11.3%
viability, T/C (second compound 0.03 µM, first compound 0.03 µM): 10%
viability, T/C (second compound 0.03 µM, first compound 0.0949 µM): 5.57%
viability, T/C (second compound 0.03 µM, first compound 0.3 µM): 7.99%
viability, T/C (second compound 0.0949 µM, first compound 0.000949 µM): 101%
viability, T/C (second compound 0.0949 µM, first compound 0.003 µM): 43.5%
viability, T/C (second compound 0.0949 µM, first compound 0.00949 µM): 12.7%
viability, T/C (second compound 0.0949 µM, first compound 0.03 µM): 4.87%
viability, T/C (second compound 0.0949 µM, first compound 0.0949 µM): 7.25%
viability, T/C (second compound 0.0949 µM, first compound 0.3 µM): 6.81%
viability, T/C (second compound 0.3 µM, first compound 0.000949 µM): 66%
viability, T/C (second compound 0.3 µM, first compound 0.003 µM): 34.3%
viability, T/C (second compound 0.3 µM, first compound 0.00949 µM): 10%
viability, T/C (second compound 0.3 µM, first compound 0.03 µM): 5.73%
viability, T/C (second compound 0.3 µM, first compound 0.0949 µM): 6.03%
viability, T/C (second compound 0.3 µM, first compound 0.3 µM): 4.48%
